Data reported in US6433025B1, “Method for retarding and preventing sunburn by UV light” (Cyanotech Corporation, priority 2000, dated 2002).

Columns and labels:
rat kidney fibroblasts = conditions: cited from earlier work; for level necessary to protect against UV-induced loss of catalase (CAT) / level required to protect against loss of SOD activity / level that prevented the UVA-induced increase in TBARS: UVA light for four hours
SKH hairless mice = conditions: fed as sole carotenoid source; cited from earlier work
human sunburn response = conditions: oral supplementation, normal individuals; cited from earlier work
[1] = test system: basal-cell and squamous-cell carcinomas; conditions: 4.5 years, cited from earlier work
primed spleen cells = conditions: cited from earlier work
laboratory animals = conditions: applied up to 8 hours following UVB exposure; cited from earlier work
hairless mouse = conditions: repeated topical treatment; cited from earlier work
UV-induced erythema = conditions: cited from earlier work
sunburn cells = conditions: in vivo; cited from earlier work
skin of volunteers = conditions: 10% solution applied to the skin, cited from earlier work
sunburn by UVR exposure = test: Example 1: oral astaxanthin soft gel capsules in a subject with extreme propensity for sunburns; assay type: in vivo, human
Description: Haematococcus algae meal containing 1.5% astaxanthin was thoroughly mixed with safflower oil such that the resulting suspension contained 2.0 mg of pure astaxanthin per gram of safflower oil suspension. 500 mg soft gel capsules were produced from the safflower oil suspension such that each soft gel capsule contained 1.0 mg of pure astaxanthin.
One individual was an adult with extreme propensity for sunburns. The subject had come to Hawaii for vacation and had already sunburned on a 10 minute walk with SPF 50 sunblock cream, long pants and sleeves. They then began taking 2 milligrams of astaxanthin of the above formulation per day. On the eleventh day, they took another walk in the afternoon, on a cloudy day, with long pants, a tee shirt, but without a hat or sunglasses. While 1 mile away from their condo, the clouds dissipated and they were exposed to the full sun while walking back.

[2] = test system: sunblister sores and sun sensitivity; test: Example 2: oral astaxanthin in a construction worker with sunblister sores; assay type: in vivo, human; conditions: 4 milligrams per day oral
Text: An adult subject is a construction worker in Hawaii and is routinely exposed to the UVR of the sun while working outside. They were often affected by sunblister sores breaking out on their arm after a long day of sun exposure. The individual began taking 4 milligrams of astaxanthin per day derived from Haematococcus algae (as described in the above Example 1). Two milligrams of astaxanthin were consumed with lunch and 2 milligrams with dinner.
The individual stopped taking the astaxanthin formulation for two weeks and the blisters and sun sensitivity returned.

SKH1 hairless mice = conditions: cited from earlier work
vitamin E-deficient rats = conditions: rat, in vivo; cited from earlier work
[3] = test system: interleukin-1 alpha and tumor necrosis factor alpha; conditions: mouse, in vivo; cited from earlier work
human blood = conditions: response to T-dependent stimuli; cited from earlier work

**Q.** Which “level necessary to protect against UV-induced loss of catalase (CAT)” value (rat kidney fibroblasts) does the source give for `CC1=C(/C=C/C(C)=C/C=C/C(C)=C/C=C/C=C(C)/C=C/C=C(C)/C=C/C2=C(C)CCCC2(C)C)C(C)(C)CCC1` [beta-carotene] here?
**A.** 1000 nM

**Q.** What about the “level required to protect against loss of SOD activity” value (rat kidney fibroblasts) of the same compound?
**A.** 500 nM

**Q.** And the “level that prevented the UVA-induced increase in TBARS” value (rat kidney fibroblasts)?
**A.** 100 nM

**Q.** What about the “probability of epidermal tumors” value (SKH hairless mice) of the same compound?
**A.** tended to have higher probability of epidermal tumors

**Q.** And the “severity of cutaneous photodamage” value (human sunburn response)?
**A.** unlikely to modify

**Q.** And the “incidence of basal-cell or squamous-cell carcinoma versus placebo” value ([1]; 30 mg per day)?
**A.** no significant difference

**Q.** What about the “incidence of basal-cell carcinoma in terms of number of tumors” value [1] of the same compound?
**A.** no effect

**Q.** And the “number of antibody-secreting cells from primed spleen cells” value (“number of antibody-secreting cells” for short) (primed spleen cells)?
**A.** not

**Q.** With `CC(=O)Oc1c(C)c(C)c2c(c1C)CCC(C)(CCC[C@H](C)CCC[C@H](C)CCCC(C)C)O2` (stereo partly drawn) [vitamin E acetate] as the compound, how does the “inflammation, skin sensitivity and skin damage” value (laboratory animals) read?
**A.** prevented inflammation, skin sensitivity and skin damage

**Q.** With `O=C(OOC(=O)c1ccccc1)c1ccccc1` [benzoyl peroxide] as the compound, how does the “cutaneous effects of repeated administration” value (hairless mouse) read?
**A.** produces skin changes in the hairless mouse that qualitatively resemble those produced by ultraviolet B

**Q.** Which results are given for `COc1ccc2[nH]cc(CCNC(C)=O)c2c1` [melatonin]?
**A.** protective effects against UV-induced erythema (UV-induced erythema; applied after UV irradiation): no significant protective effects; development of UV-induced erythema (UV-induced erythema; topical, 15 min before UV irradiation): almost completely suppress

**Q.** Which “number of sunburn cells” value (sunburn cells) does the source give for tocopherol here?
**A.** decreased

**Q.** For `CC1=C[C@H](O)CC(C)(C)[C@H]1/C=C/C(C)=C/C=C/C(C)=C/C=C/C=C(C)/C=C/C=C(C)/C=C/C1=C(C)C[C@@H](O)CC1(C)C` [lutein], which “level necessary to protect against UV-induced loss of catalase (CAT)” value (rat kidney fibroblasts) is on record?
**A.** 100 nM

**Q.** And the “level required to protect against loss of SOD activity” value (rat kidney fibroblasts)?
**A.** 1000 nM

**Q.** What about the “level that prevented the UVA-induced increase in TBARS” value (rat kidney fibroblasts) of the same compound?
**A.** 1000 nM

**Q.** What about the “number of antibody-secreting cells” value (primed spleen cells) of the same compound?
**A.** not

**Q.** What does the source list for `CC(C)=CCC/C(C)=C/C=C/C(C)=C/C=C/C(C)=C/C=C/C=C(C)/C=C/C=C(C)/C=C/C=C(\C)CCC=C(C)C` [lycopene]?
**A.** probability of epidermal tumors (SKH hairless mice): tended to have higher probability of epidermal tumors; number of antibody-secreting cells from primed spleen cells (primed spleen cells): not

**Q.** With `O=C1O[C@H]([C@@H](O)CO)C(O)=C1O` [vitamin C] as the compound, how does the “increase in amount of ultraviolet light needed to burn” value (skin of volunteers; average) read?
**A.** 22%

**Q.** And the severity of burns (skin of volunteers)?
**A.** half of the volunteers experienced much less severe bums

**Q.** For `CC1=C(/C=C/C(C)=C/C=C/C(C)=C/C=C/C=C(C)/C=C/C=C(C)/C=C/C2=C(C)C(=O)[C@@H](O)CC2(C)C)C(C)(C)C[C@H](O)C1=O` [astaxanthin], which “sunburn after exposure to the full sun” value (sunburn by UVR exposure; adult female, 2 milligrams of astaxanthin per day oral, eleventh day) is on record?
**A.** not affected by the UVR exposure

**Q.** And the “sunburn effects while wearing shorts outside” value (sunburn by UVR exposure; remainder of vacation, while taking the astaxanthin supplement)?
**A.** without sunburn effects

**Q.** And the “sensitivity to the sunlight” value ([2]; after 1 month)?
**A.** noticeably improved

**Q.** And the sunblister sores ([2]; after 1 month)?
**A.** all of their blisters were healed

**Q.** And the sunblister sores ([2]; after 2 weeks)?
**A.** blisters began to heal

**Q.** What about the “sensitivity to sun exposure” value ([2]; adult male, after 2 weeks) of the same compound?
**A.** not sensitive to the sun exposure

**Q.** And the “prevention of increases of free putrescine after irradiation” value (SKH1 hairless mice; astaxanthin alone or in combination with retinol)?
**A.** remarkably effective

**Q.** What about the “increase of epidermal putrescine after irradiation” value (SKH1 hairless mice; diet 10-ppm astaxanthin, 4 months, ultraviolet light) of the same compound?
**A.** 1.5 fold

**Q.** And the “spermidine and spermine concentrations” value (SKH1 hairless mice; groups fed astaxanthin)?
**A.** significantly lower

**Q.** What about the “inhibitory effect on putrescine accumulation compared with dietary retinol” value (SKH1 hairless mice; mouse, in vivo) of the same compound?
**A.** stronger inhibitory effect

**Q.** And the “level necessary to protect against UV-induced loss of catalase (CAT)” value (rat kidney fibroblasts)?
**A.** 5 nM

**Q.** And the “level required to protect against loss of SOD activity” value (rat kidney fibroblasts)?
**A.** 5 nM

**Q.** What about the “level that prevented the UVA-induced increase in TBARS” value (rat kidney fibroblasts) of the same compound?
**A.** 1 nM

**Q.** And the “protection against UVA light-induced oxidative stress compared to lutein and beta-carotene” value (rat kidney fibroblasts)?
**A.** superior protection

**Q.** And the “probability of epidermal tumors” value (SKH hairless mice)?
**A.** tended to have higher probability of epidermal tumors

**Q.** And the “mitochondrial damage caused by lipid peroxidation” value (vitamin E-deficient rats)?
**A.** protects the mitochondria from damage

**Q.** What about the “release of interleukin-1 alpha and tumor necrosis factor alpha” value [3] of the same compound?
**A.** enhances the release of interleukin-1 alpha and tumor necrosis factor alpha in mice to a greater degree than canthaxanthin and beta-carotene

**Q.** What about the “number of antibody-secreting cells” value (primed spleen cells) of the same compound?
**A.** increased

**Q.** And the “T-helper cell antibody production” value (primed spleen cells; even when suboptimal amounts of antigen were present)?
**A.** enhanced

**Q.** What about the “production of IgM, IgA and IgG antibodies” value (human blood) of the same compound?
**A.** enhances

**Q.** Which “number of antibody-secreting cells” value (primed spleen cells) does the source give for `CC1=C(/C=C/C(C)=C/C=C/C(C)=C/C=C/C=C(C)/C=C/C=C(C)/C=C/C2=C(C)C(=O)CCC2(C)C)C(C)(C)CCC1=O` [canthaxanthin] here?
**A.** not
